Experimental findings from ChEMBL document CHEMBL3112416, “Designing analogs of ticlopidine, a wall teichoic acid inhibitor, to avoid formation of its oxidative metabolites” (Bioorg Med Chem Lett, 2014) are described below.

Experiment [1] concerns Staphylococcus aureus. Description: Ratio of MIC for community acquired methicillin-resistant Staphylococcus aureus USA300 in presence of targocil to MIC for community acquired methicillin-resistant Staphylococcus aureus USA300 by checkerboard broth microdilution assay. The class given is functional. In general terms: Broth dilution looks for growth in wells or tubes with falling amounts of substance.

Experiment [2] has as its system Staphylococcus aureus. Put plainly: Ratio of MIC for community acquired methicillin-resistant Staphylococcus aureus USA300 in presence of cefuroxime to MIC for community acquired methicillin-resistant Staphylococcus aureus USA300 by checkerboard broth microdilution assay. The experiment is classed as functional.
A short description of experiment [3]: Displacement of UDP-[14C]GlcNAc from TarO (unknown origin) after 2.5 hrs by scintillation counting analysis.

In the case of `Clc1ccccc1C[n+]1ccc2ccccc2c1`, the “fractional inhibitory concentration index (FICI)” value with Staphylococcus aureus [1] and in the experiment on Staphylococcus aureus [2] was 2 throughout. Moreover, the IC50 (usually the midpoint of a concentration-inhibition curve) in experiment [3] was greater than 5000 µM.
Consider `FC(F)(F)c1ccccc1CN1CCc2ccccc2C1`, for which the “fractional inhibitory concentration index (FICI)” value was determined as 8.3 in the experiment with Staphylococcus aureus [1] and 0.094 with Staphylococcus aureus [2]. Further, the IC50 in experiment [3] amounted to 350 µM.
For `c1ccc2c(c1)CCN(Cc1ccncc1)C2`, the “fractional inhibitory concentration index (FICI)” value in the experiment on Staphylococcus aureus [1] and in the experiment with Staphylococcus aureus [2] was 2 throughout.
For the compound `Clc1ccccc1CN1CCc2sccc2C1` [TICLOPIDINE], the “fractional inhibitory concentration index (FICI)” value with Staphylococcus aureus [1] turned out to be 8.3; with Staphylococcus aureus [2], 0.13. This compound displayed an IC50 in experiment [3] of 150 µM.
Take `COC(=O)C(c1ccccc1Cl)N1CCc2ccccc2C1` (racemic): the “fractional inhibitory concentration index (FICI)” value stood at 8.2 in the experiment on Staphylococcus aureus [1] and 0.19 in the experiment with Staphylococcus aureus [2]. The compound further registered a 50% inhibitory concentration (IC50) in experiment [3] of 190 µM.
For the compound `O=[N+]([O-])c1ccccc1CN1CCc2ccccc2C1`, the “fractional inhibitory concentration index (FICI)” value was 8.3 with Staphylococcus aureus [1] and 0.19 in the experiment with Staphylococcus aureus [2].
Taken in the same sequence, the figures for `Cc1ccccc1CN1CCc2ccccc2C1` were 8.1 and 0.13.
With `COC(=O)[C@H](c1ccccc1Cl)N1CCc2sccc2C1` [CLOPIDOGREL], the figures for the “fractional inhibitory concentration index (FICI)” value in the experiment with Staphylococcus aureus [1] and in the experiment with Staphylococcus aureus [2] were 8.1 and 0.19, respectively. The same compound displayed an IC50 in experiment [3] of 150 µM.
Consider `Clc1ccccc1CN1CCc2ccccc2C1`, for which the “fractional inhibitory concentration index (FICI)” value in the experiment on Staphylococcus aureus [1] is reported as 8.1; in the experiment on Staphylococcus aureus [2], 0.13. Moreover, the IC50 in experiment [3] was found to be 520 µM.
For the compound `c1cc2c(s1)CCNC2`, the “fractional inhibitory concentration index (FICI)” value in the experiment with Staphylococcus aureus [1] and in the experiment on Staphylococcus aureus [2] was 2 in each case. The same compound gave a half-maximal inhibitory concentration (IC50) in experiment [3] of 4300 µM.
`NC(=O)C(c1ccccc1C(F)(F)F)N1CCc2ccccc2C1` (racemic): the “fractional inhibitory concentration index (FICI)” value in the experiment with Staphylococcus aureus [1] turned out to be 2; in the experiment with Staphylococcus aureus [2] it was 1.
`c1ccc2c(c1)CCN(Cc1ccc3ccccc3c1)C2`: the “fractional inhibitory concentration index (FICI)” value in the experiment on Staphylococcus aureus [1] is 8.1; with Staphylococcus aureus [2], 0.31. In addition, the IC50 in experiment [3] stood at 220 µM.
Regarding `Fc1ccccc1CN1CCc2ccccc2C1`, the “fractional inhibitory concentration index (FICI)” value in the experiment with Staphylococcus aureus [1] is given as 8; with Staphylococcus aureus [2], 0.25.
Turning to `O=C(O)C(c1ccccc1C(F)(F)F)N1CCc2ccccc2C1` (racemic), the “fractional inhibitory concentration index (FICI)” value in the experiment on Staphylococcus aureus [1] and in the experiment with Staphylococcus aureus [2] was 2 throughout.
Take `Clc1ccccc1CC1CCc2ccccc2N1` (stereo not drawn): the “fractional inhibitory concentration index (FICI)” value with Staphylococcus aureus [1] came to 8.3; in the experiment with Staphylococcus aureus [2], 0.19. Moreover, in experiment [3], the IC50 was 270 µM.
In the case of `Clc1ccc(CN2CCc3ccccc3C2)cc1`, the “fractional inhibitory concentration index (FICI)” value is reported as 8.1 in the experiment with Staphylococcus aureus [1] and 2 in the experiment on Staphylococcus aureus [2].
Regarding `O=C(O)C(c1ccccc1Cl)N1CCc2sccc2C1` (racemic), the “fractional inhibitory concentration index (FICI)” value turned out to be 2 with Staphylococcus aureus [1] and 0.75 with Staphylococcus aureus [2].
On to `CCN1CCN(Cc2ccccc2Cl)CC1`, for which the “fractional inhibitory concentration index (FICI)” value in the experiment on Staphylococcus aureus [1] and in the experiment with Staphylococcus aureus [2] was 2 in each case.
`O=C(O)C(c1ccccc1Cl)N1CCc2ccccc2C1` (racemic): the “fractional inhibitory concentration index (FICI)” value was found to be 2 in the experiment on Staphylococcus aureus [1] and 0.75 with Staphylococcus aureus [2]. In addition, the IC50 in experiment [3] turned out to be 440 µM.
Consider `Clc1ccccc1CN1CCCC1`, for which the “fractional inhibitory concentration index (FICI)” value in the experiment on Staphylococcus aureus [1] and in the experiment on Staphylococcus aureus [2] was 2 in each case.
As for `Clc1ccc2c(c1)CCN(Cc1ccccc1Cl)C2`, the “fractional inhibitory concentration index (FICI)” value came out at 4.5 in the experiment on Staphylococcus aureus [1] and 2 in the experiment on Staphylococcus aureus [2]. For the same compound, in experiment [3], the half-inhibitory concentration (IC50) stood at 190 µM.
Taken in the same sequence, the figures for `c1ccc(CN2CCc3ccccc3C2)cc1` were 1.3, 0.63 and 270 µM.
`Oc1ccc2c(c1)CN(Cc1ccccc1Cl)CC2`: the “fractional inhibitory concentration index (FICI)” value in the experiment with Staphylococcus aureus [1] turned out to be 4.5; in the experiment on Staphylococcus aureus [2], 2.
For `Clc1ccccc1CN1CCC2CCCCC2C1` (stereo not drawn), the “fractional inhibitory concentration index (FICI)” value in the experiment on Staphylococcus aureus [1] and in the experiment on Staphylococcus aureus [2] was 2 throughout.
Consider `Clc1cccc(CN2CCc3ccccc3C2)c1`, for which the figures for the “fractional inhibitory concentration index (FICI)” value with Staphylococcus aureus [1] and in the experiment on Staphylococcus aureus [2] were 8.1 and 2, respectively. For the same compound, the IC50 in experiment [3] was 270 µM.
With `COC(=O)C(c1ccccc1C(F)(F)F)N1CCc2ccccc2C1` (racemic), the “fractional inhibitory concentration index (FICI)” value with Staphylococcus aureus [1] amounted to 8.3; with Staphylococcus aureus [2] it was 0.13.
For `Clc1ccccc1CN1CCCCC1`, the “fractional inhibitory concentration index (FICI)” value in the experiment with Staphylococcus aureus [1] and in the experiment on Staphylococcus aureus [2] was 2 in each case. Moreover, in experiment [3], the IC50 turned out to be 1100 µM.
